Laboratory results published in patent publication US12643871B2, “Aryl formamide compound containing chiral sulfur oxide or salt thereof, preparation method, herbicidal composition and use thereof” (Qingdao Kingagroot Chemical Compound Co., Ltd., priority 2019, dated 2026).

Experiments:
Assay in all cases: Weeding effect in post-emergence stage
Assay type in all cases: in vivo
Details in all cases: 250 g/ha; 2 leaf stage; 15 days after application; fresh weight control rate
Abutilon theophrasti = tested on: Abutilon theophrasti
Method in brief: (§1)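 Pot-grown weeds sprayed post-emergence at the 2-leaf stage, 2 weeks after sowing, with compound in acetone/Tween 80 plus 1.5 L/ha methyl oleate concentrate at 500–15 g/ha. Fresh-weight growth control scored after 15 days in greenhouse, mean of three replicates, graded levels 0–5 (5: >85%, 0: <5%).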

Amaranthus retroflexus = tested on: Amaranthus retroflexus
Method in brief: as §1

Digitaria sanguinalis = tested on: Digitaria sanguinalis
Method in brief: as §1

Echinochloa crusgali = tested on: Echinochloa crusgali
Method in brief: as §1

SMILES | weeding effect in post-emergence stage, activity level (growth control rate), Abutilon theophrasti (Abutilon theophrasti) | weeding effect in post-emergence stage, activity level (growth control rate), Amaranthus retroflexus (Amaranthus retroflexus) | weeding effect in post-emergence stage, activity level (growth control rate), Digitaria sanguinalis (Digitaria sanguinalis) | weeding effect in post-emergence stage, activity level (growth control rate), Echinochloa crusgali (Echinochloa crusgali)
CCC[S@@+]([O-])c1c(C(F)(F)F)ccc(C(=O)Nc2nnc(C)o2)c1CC [Compound 538] | 5 (Level 5: growth control rate is above 85%) | 5 (Level 5: growth control rate is above 85%) | 5 (Level 5: growth control rate is above 85%) | 5 (Level 5: growth control rate is above 85%)
Cc1c(C(=O)Nc2nnnn2C)ccc(S(C)(=O)=O)c1[S@+]([O-])CC1CC1 [Compound 518] | 5 (Level 5: growth control rate is above 85%) | 5 (Level 5: growth control rate is above 85%) | 5 (Level 5: growth control rate is above 85%) | 5 (Level 5: growth control rate is above 85%)
Cc1c(C(=O)Nc2nnnn2C)ccc(S(C)(=O)=O)c1[S@+]([O-])CCCCl [Compound 526] | 5 (Level 5: growth control rate is above 85%) | 5 (Level 5: growth control rate is above 85%) | 5 (Level 5: growth control rate is above 85%) | 5 (Level 5: growth control rate is above 85%)
CCC[S@@+]([O-])c1c(C(F)(F)F)ccc(C(=O)Nc2nnc(C)o2)c1OCOC [Compound 536] | 5 (Level 5: growth control rate is above 85%) | 5 (Level 5: growth control rate is above 85%) | 5 (Level 5: growth control rate is above 85%) | 5 (Level 5: growth control rate is above 85%)
CSCCC[S@@+]([O-])c1c(C(F)(F)F)ccc(C(=O)Nc2nnc(C)o2)c1SC [Compound 599] |  | 5 (Level 5: growth control rate is above 85%) | 5 (Level 5: growth control rate is above 85%) | 5 (Level 5: growth control rate is above 85%)
Cc1c(C(=O)Nc2nnnn2C)ccc(S(C)(=O)=O)c1[S+]([O-])CC1CCC1 (stereo not shown) [Compound 626] |  | 5 (Level 5: growth control rate is above 85%) | 5 (Level 5: growth control rate is above 85%) | 5 (Level 5: growth control rate is above 85%)
C=CCC[S@@+]([O-])c1c(S(C)(=O)=O)ccc(C(=O)Nc2nnnn2C)c1C [Compound 619] |  | 5 (Level 5: growth control rate is above 85%) | 5 (Level 5: growth control rate is above 85%) | 5 (Level 5: growth control rate is above 85%)
Cc1nnc(NC(=O)c2ccc(F)c([S@@+](C)[O-])c2F)o1 [Compound 623] |  | 5 (Level 5: growth control rate is above 85%) | 5 (Level 5: growth control rate is above 85%) | 5 (Level 5: growth control rate is above 85%)
CC(=O)C[S@@+]([O-])c1c(S(C)(=O)=O)ccc(C(=O)Nc2nnnn2C)c1C [Compound 609] |  | 5 (Level 5: growth control rate is above 85%) | 5 (Level 5: growth control rate is above 85%) | 5 (Level 5: growth control rate is above 85%)
Cc1nnc(NC(=O)c2ccc(S(C)(=O)=O)c([S@+]([O-])CCCO)c2C)o1 [Compound 628] |  | 5 (Level 5: growth control rate is above 85%) | 5 (Level 5: growth control rate is above 85%) | 5 (Level 5: growth control rate is above 85%)
CCC[S@@+]([O-])c1c(C(F)F)ccc(C(=O)Nc2nnnn2C)c1SC [Compound 867] |  | 5 (Level 5: growth control rate is above 85%) | 5 (Level 5: growth control rate is above 85%) | 5 (Level 5: growth control rate is above 85%)
CCOCCn1nnnc1NC(=O)c1ccc(S(C)(=O)=O)c([S@+]([O-])CC)c1C [Compound 612] |  | 5 (Level 5: growth control rate is above 85%) | 5 (Level 5: growth control rate is above 85%) | 5 (Level 5: growth control rate is above 85%)
CSC(=O)C[S@@+]([O-])c1c(C(F)(F)F)ccc(C(=O)Nc2nnc(C)o2)c1F [Compound 597] |  | 5 (Level 5: growth control rate is above 85%) | 5 (Level 5: growth control rate is above 85%) | 5 (Level 5: growth control rate is above 85%)
Cc1nnc(NC(=O)c2ccc(S(C)(=O)=O)c([S@+]([O-])CCC(F)=C(F)F)c2C)o1 [Compound 627] |  | 5 (Level 5: growth control rate is above 85%) | 5 (Level 5: growth control rate is above 85%) | 5 (Level 5: growth control rate is above 85%)
Cc1nnc(NC(=O)c2ccc(S(C)(=O)=O)c([S@+]([O-])CCS(C)(=O)=O)c2C)o1 [Compound 625] |  | 5 (Level 5: growth control rate is above 85%) | 5 (Level 5: growth control rate is above 85%) | 5 (Level 5: growth control rate is above 85%)
CSc1c(C(=O)Nc2nnnn2C)ccc(C(F)(F)F)c1[S@+]([O-])CCF [Compound 596] |  | 5 (Level 5: growth control rate is above 85%) | 5 (Level 5: growth control rate is above 85%) | 5 (Level 5: growth control rate is above 85%)
CC(=O)C[S@@+]([O-])c1c(S(C)(=O)=O)ccc(C(=O)Nc2nnc(C)o2)c1C [Compound 611] |  | 5 (Level 5: growth control rate is above 85%) | 5 (Level 5: growth control rate is above 85%) | 5 (Level 5: growth control rate is above 85%)
Cc1c(C(=O)Nc2nnnn2C)ccc(S(C)(=O)=O)c1[S@+]([O-])CC(=O)N(C)C [Compound 606] |  | 5 (Level 5: growth control rate is above 85%) | 5 (Level 5: growth control rate is above 85%) | 5 (Level 5: growth control rate is above 85%)
Cc1c(C(=O)Nc2nnnn2C)ccc(S(C)(=O)=O)c1[S@+]([O-])CCC#N [Compound 608] |  | 5 (Level 5: growth control rate is above 85%) | 5 (Level 5: growth control rate is above 85%) | 5 (Level 5: growth control rate is above 85%)
CSCCC[S@@+]([O-])c1c(C(F)(F)F)ccc(C(=O)Nc2nnc(C)o2)c1F [Compound 598] |  | 5 (Level 5: growth control rate is above 85%) | 5 (Level 5: growth control rate is above 85%) | 5 (Level 5: growth control rate is above 85%)
